Results from patent US12377080B2, “Allosteric EGFR inhibitors and methods of use thereof” (Dana-Farber Cancer Institute, Inc., priority 2019, dated 2025).

What was measured:
EGFR L858R/T790M = EGFR L858R/T790M (Homo sapiens (Human), UniProt P00533, L858R/T790M); assay: HTRF-based EGFR biochemical assay (L858R/T790M); details: 100 μM ATP
Experimental: (§1) EGFR biochemical activity measurements were carried out using the homogeneous time-resolved fluorescence (HTRF) assay (Cisbio). Inhibitors and DMSO normalizations were first dispensed to empty black low-volume 384-well plates (Corning) with D300 digital liquid dispenser (HP). All reactions were carried out at room temperature and solutions were added to plates with a Multidrop Combi Reagent Dispenser (ThermoFisher). The reaction mixture (10 μL final volume) contained 1 μM tyrosine kinase peptide-biotin substrate and mutant EGFR in a reaction buffer (50 mM HEPES pH 7,0, 5 mM MgCl2,1 mM MnCl2, 0.01% BSA, 2 mM TCEP, 0.1 mM NaVO4). Enzyme concentrations were adjusted to accommodate varying kinase activities (L858R 0.1 nM, L858R!T790M 0,02 nM). Enzyme reaction solution (2× concentrations, 5 μL) was added to 384-well plates containing compounds and incubated for 30 mins. Enzyme reactions were initiated with the addition of […] of ATP to a final concentration of 100 μM and reacted for 20 mins. Reactions were quenched with the addition of 10 μL of phospho-tyrosine antibody-Europium(III) cryptate (1-to-180 volume ratio) and Streptavidin-XL665 (46.7 nM) in EDTA-containing detection buffer, then incubated at room temperature for 1 hour, and read with a PHERAstar plate reader (excitation =337 nm, emission =620 nm and 665 nm).

[1] = test system: EGFR L858R/T790M mutant Ba/F3 Cells; assay: Ba/F3 cell proliferation (Cell Titer Glo) in combination with cetuximab; assay type: cell-based, murine; details: 72 hours
Excerpt: The EGFR mutant L858R, Del E746_A750, L858R/T790M, Del E746_A750/T790M, L858R/T790MIC797S, and DellT790MIC797S Ba/F3 cells have been previously described (Zhou, W., et al, Nature 462, 2009, 1070-1074). All cell lines were maintained in RPM I 1640 (Cellgro; Mediatech Inc., Herndon, CA) supplemented with 10% FBS, 100 units/mL penicillin, 100 units/mL streptomycin. The EGFR 1941 R mutation was introduced via site directed mutagenesis using the Quick Change Site-Directed Mutagenesis kit (Stratagene; La Jolla, CA) according to the manufacturer's instructions. All constructs were confirmed by DNA sequencing. The constructs were shuttled into the retroviral vector JP1540 using the Cre-recombination system (Agilent Technologies, Santa Clara, CA). Ba/F3 cells were then infected with retrovirus per standard protocols, as described previously (Zhou, et al, Nature 2009). Stable clones were obtained by selection in puromycin (2 μg/ml),
Growth and inhibition of growth was assessed by the Cell Titer Glo assay (Promega, Madison, WI) and was performed according to the manufacturer's instructions. The Cell Titer Glo assay is a luminescence-based method used to determine the number of viable cells based on quantitation of the ATP present, which is directly proportional to the amount of metabolically active cells present. Ba/F3 cells of different EGFR genotypes were exposed to compounds as a single agent or in combination with […] for 72 hours and the number of cells used per experiment was determined empirically as has been previously established (Zhou, et al., Nature 2009). All experimental points were set up in triplicates in 384-well plates and all experiments were repeated at least three times. […] The curves were fitted using a non-linear regression model with a sigmoidal dose response.

EGFR L858R = EGFR L858R (Homo sapiens (Human), UniProt P00533, L858R); assay: HTRF-based EGFR biochemical assay (L858R); details: 100 μM ATP
Experimental: as §1

[2] = test system: NSCLC that have developed resistance to gefitinib or erlotinib; details: patients with NSCLC resistant to gefitinib or erlotinib; cited from earlier work

EGFR L858R/T790M, sequence (P00533 25-1210 T790M/L858R): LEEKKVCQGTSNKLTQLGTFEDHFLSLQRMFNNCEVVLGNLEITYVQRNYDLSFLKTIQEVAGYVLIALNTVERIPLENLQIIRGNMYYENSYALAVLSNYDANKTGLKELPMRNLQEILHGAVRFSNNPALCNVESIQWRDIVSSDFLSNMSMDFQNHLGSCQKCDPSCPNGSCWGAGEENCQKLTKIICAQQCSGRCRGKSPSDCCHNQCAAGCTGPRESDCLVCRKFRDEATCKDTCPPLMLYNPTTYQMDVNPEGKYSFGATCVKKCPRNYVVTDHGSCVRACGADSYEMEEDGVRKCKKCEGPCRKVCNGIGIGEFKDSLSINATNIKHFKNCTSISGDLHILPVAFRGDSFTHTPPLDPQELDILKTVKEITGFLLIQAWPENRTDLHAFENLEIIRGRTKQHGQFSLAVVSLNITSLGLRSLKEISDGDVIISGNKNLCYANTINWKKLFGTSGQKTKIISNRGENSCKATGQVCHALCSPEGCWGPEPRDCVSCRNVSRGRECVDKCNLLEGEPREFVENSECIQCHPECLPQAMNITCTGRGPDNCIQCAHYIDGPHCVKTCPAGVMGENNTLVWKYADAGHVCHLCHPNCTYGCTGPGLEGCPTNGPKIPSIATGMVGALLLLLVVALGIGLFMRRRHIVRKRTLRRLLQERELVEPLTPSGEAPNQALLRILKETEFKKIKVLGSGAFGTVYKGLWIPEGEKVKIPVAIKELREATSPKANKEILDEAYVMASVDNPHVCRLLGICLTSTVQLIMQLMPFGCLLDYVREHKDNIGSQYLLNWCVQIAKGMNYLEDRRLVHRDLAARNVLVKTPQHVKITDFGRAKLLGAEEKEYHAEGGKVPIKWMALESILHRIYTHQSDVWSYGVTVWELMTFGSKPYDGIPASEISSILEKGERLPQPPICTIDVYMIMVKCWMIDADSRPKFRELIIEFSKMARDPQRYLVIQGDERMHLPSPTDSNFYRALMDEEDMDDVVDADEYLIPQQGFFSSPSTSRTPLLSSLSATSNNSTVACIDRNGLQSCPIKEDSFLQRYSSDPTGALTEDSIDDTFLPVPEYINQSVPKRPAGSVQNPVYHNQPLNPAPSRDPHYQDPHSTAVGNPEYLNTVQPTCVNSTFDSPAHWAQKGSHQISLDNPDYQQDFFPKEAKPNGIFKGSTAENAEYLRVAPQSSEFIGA
EGFR L858R, sequence (P00533 25-1210 L858R): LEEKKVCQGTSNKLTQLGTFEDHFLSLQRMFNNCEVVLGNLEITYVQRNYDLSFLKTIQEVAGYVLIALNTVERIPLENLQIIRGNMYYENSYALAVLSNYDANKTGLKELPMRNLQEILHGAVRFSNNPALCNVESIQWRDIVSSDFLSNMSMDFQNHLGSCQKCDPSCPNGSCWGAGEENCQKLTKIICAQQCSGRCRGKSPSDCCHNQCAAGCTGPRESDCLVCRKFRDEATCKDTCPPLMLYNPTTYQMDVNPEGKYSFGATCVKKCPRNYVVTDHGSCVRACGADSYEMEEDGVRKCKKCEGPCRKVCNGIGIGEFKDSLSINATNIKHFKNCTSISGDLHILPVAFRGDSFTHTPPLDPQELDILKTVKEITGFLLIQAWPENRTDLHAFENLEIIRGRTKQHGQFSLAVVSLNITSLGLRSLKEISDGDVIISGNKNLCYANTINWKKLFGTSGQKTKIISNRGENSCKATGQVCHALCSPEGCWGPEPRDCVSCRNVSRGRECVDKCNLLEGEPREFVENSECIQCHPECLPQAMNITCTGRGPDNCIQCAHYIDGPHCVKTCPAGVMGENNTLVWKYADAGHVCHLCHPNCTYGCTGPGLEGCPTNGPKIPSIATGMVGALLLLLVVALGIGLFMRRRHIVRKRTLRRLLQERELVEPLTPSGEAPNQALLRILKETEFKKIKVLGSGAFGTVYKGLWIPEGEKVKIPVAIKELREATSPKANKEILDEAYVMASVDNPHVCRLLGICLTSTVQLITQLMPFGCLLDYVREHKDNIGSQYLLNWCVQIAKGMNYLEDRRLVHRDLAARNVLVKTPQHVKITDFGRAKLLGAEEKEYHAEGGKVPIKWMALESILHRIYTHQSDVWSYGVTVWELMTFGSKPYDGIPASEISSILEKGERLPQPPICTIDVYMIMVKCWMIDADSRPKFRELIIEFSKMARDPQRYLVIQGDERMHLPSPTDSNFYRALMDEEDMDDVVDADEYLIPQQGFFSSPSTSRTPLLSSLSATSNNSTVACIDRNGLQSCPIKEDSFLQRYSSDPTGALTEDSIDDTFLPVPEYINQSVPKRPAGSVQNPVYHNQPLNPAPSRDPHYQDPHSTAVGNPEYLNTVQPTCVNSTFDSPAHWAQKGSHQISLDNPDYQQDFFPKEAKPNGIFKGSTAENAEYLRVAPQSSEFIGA

SMILES | IC50 (EGFR L858R/T790M) [nM] | IC50 [1] [nM] | IC50 (EGFR L858R; cells printed in μM) [µM] | IC50 (EGFR L858R) [µM] | RR (response rate) [2]
CN1CCN(c2ccc(-c3cnc4c(c3)C(=O)N(C(C(=O)Nc3ccccn3)c3cccc(F)c3)C4)cn2)CC1 (stereo not shown) [Compound 12, 2-(3-fluorophenyl)-2-(3-(6-(4-methylpiperazin-1-yl)pyridin-3-yl)-5-oxo-5,7-dihydro-6H-pyrrolo[3,4-b]pyridin-6-yl)-N-(pyridin-2-yl)acetamide] | 41 | 1910 | > 1 |  | 
CN1CCC(c2ccc(-c3ccc4c(n3)C(=O)N(C(C(=O)Nc3nccs3)c3cccc(F)c3)C4)cc2)CC1 (stereo not shown) [Compound 13, 2-(3-fluorophenyl)-2-(2-(4-(1-methylpiperidin-4-yl)phenyl)-7-oxo-5,7-dihydro-6H-pyrrolo-[3,4-b]pyridin-6-yl)-N-(thiazol-2-yl)acetamide] | 1 | 20 |  | 0.007 | 
CN1CCN(c2ccc(-c3ccc4c(n3)C(=O)N(C(C(=O)Nc3nccs3)c3cccc(F)c3)C4)cc2)CC1 (stereo not shown) [Compound 14, 2-(3-fluorophenyl)-2-(2-(4-(4-methylpiperazin-1-yl)phenyl)-7-oxo-5,7-dihydro-6H-pyrrolo-[3,4-b]pyridin-6-yl)-N-(thiazol-2-yl)acetamide] | 4 | 120 |  | 0.032 | 
CN1CCN(c2ccc(-c3ccc4c(n3)C(=O)N(C(C(=O)Nc3nccs3)c3cccc(F)c3)C4)cn2)CC1 (stereo not shown) [Compound 15, 2-(3-fluorophenyl)-2-(2-(6-(4-methylpiperazin-1-yl)pyridin-3-yl)-7-oxo-5,7-dihydro-6H-pyrrolo[3,4-b]pyridin-6-yl)-N-(thiazol-2-yl)acetamide] | 6 | 330 |  | 0.083 | 
CN1CCC(c2ccc(-c3ccc4c(n3)C(=O)N(C(C(=O)Nc3nccs3)c3cccc(F)c3)C4)cc2)C1 (stereo not shown) [Compound 16, 2-(3-fluorophenyl)-2-(2-(4-(1-methylpyrrolidin-3-yl)phenyl)-7-oxo-5,7-dihydro-6H-pyrrolo-[3,4-b]pyridin-6-yl)-N-(thiazol-2-yl)acetamide] | 1 | 40 |  | 0.006 | 
CN1CCC(c2ccc(-c3ccc4c(n3)C(=O)N(C(C(=O)Nc3nccs3)c3cccc(F)c3)C4)cn2)CC1 (stereo not shown) [Compound 17, 2-(3-fluorophenyl)-2-(2-(6-(1-methylpiperidin-4-yl)pyridin-3-yl)-7-oxo-5,7-dihydro-6H-pyrrolo[3,4-b]pyridin-6-yl)-N-(thiazol-2-yl)acetamide] | 7 | 140 |  | 0.036 | 
CN1CCC(c2ccc(-c3cnc4c(c3)C(=O)N(C(C(=O)Nc3nccs3)c3cccc(F)c3)C4)cn2)CC1 (stereo not shown) [Compound 18, 2-(3-fluorophenyl)-2-(3-(6-(1-methylpiperidin-4-yl)pyridin-3-yl)-5-oxo-5,7-dihydro-6H-pyrrolo[3,4-b]pyridin-6-yl)-N-(thiazol-2-yl)acetamide] | 9 | 220 |  | 0.126 | 
CN1CCC(c2ccc(-c3ccc4c(n3)C(=O)N(C(C(=O)Nc3nccs3)c3cccc(F)c3)C4)c(F)c2)CC1 (stereo not shown) [Compound 19, 2-(2-(2-fluoro-4-(1-methyl-piperidin-4-yl)phenyl)-7-oxo-5,7-dihydro-6H-pyrrolo[3,4-b]pyridin-6-yl)-2-(3-fluoro-phenyl)-N-(thiazol-2-yl)-acetamide] | 0.7 | 30 |  | 0.004 | 
CN1CCC(c2ccc(-c3ccc4c(n3)C(=O)N(C(C(=O)Nc3nccs3)c3cccc(F)c3)C4)cc2F)CC1 (stereo not shown) [Compound 20, 2-(2-(3-fluoro-4-(1-methyl-piperidin-4-yl)phenyl)-7-oxo-5,7-dihydro-6H-pyrrolo[3,4-b]pyridin-6-yl)-2-(3-fluoro-phenyl)-N-(thiazol-2-yl)-acetamide] | 1 | 20 |  | 0.005 | 
CN1CCC(c2ccc(-c3ccc4c(n3)C(=O)N(C(C(=O)Nc3ccccn3)c3cc(F)ccc3O)C4)cc2)CC1 (stereo not shown) [Compound 21, 2-(5-fluoro-2-hydroxyphenyl)-2-(2-(4-(1-methylpiperidin-4-yl)phenyl)-7-oxo-5,7-dihydro-6H-pyrrolo[3,4-b]pyridin-6-yl)-N-(pyridin-2-yl)acetamide] | 0.4 | 10 |  | 0.004 | 
CN1CCC(c2ccc(-c3cnc4c(c3)C(=O)N(C(C(=O)Nc3ccccn3)c3cc(F)ccc3O)C4)cc2)CC1 (stereo not shown) [Compound 22, 2-(5-fluoro-2-hydroxyphenyl)-2-(3-(4-(1-methylpiperidin-4-yl)phenyl)-5-oxo-5,7-dihydro-6H-pyrrolo[3,4-b]pyridin-6-yl)-N-(pyridin-2-yl)acetamide] | 1 | 30 |  | 0.005 | 
CN(C)C/C=C/C(=O)Nc1cc2c(Nc3ccc(F)c(Cl)c3)ncnc2cc1O[C@H]1CCOC1 [afatinib] |  |  |  |  | less than 10%
